Patent US5972982A (priority 1997, dated 1999)
In brackets after ≈: the same amount, converted by molar mass.

How the values were obtained:
[1] = test system: Poliovirus Type III vaccine strain (ATCC VR 300); test: microbe, parasite or virus in culture; type: cell-based
[2] = test system: Streptococcus pyogenes; test: microbe, parasite or virus in culture; settings: 48 h
[3] = test system: HEP 2 Cells (ATCC HB 8065); test: Antiviral assay of Respiratory Syncytial Virus: toxicity to uninfected cells; type: cell-based
Procedure: c. […] The cell count wells receive media only.
d. The cultures are incubated for 24 hr.
e. […] Scoring is as described above.

[4] = test system: Mycobacterium tuberculosis strain H37Rv; test: microbe, parasite or virus in culture; type: cell-based; settings: read-out: MIC VERSUS H37Rv
[5] = test system: Buffalo Green Monkey Kidney Cells (ATCC CCL 81)
[6] = test system: several DNA and RNA viruses; settings: against several DNA and RNA viruses; cited from earlier work
[7] = test system: Poliovirus Type III vaccine strain (ATCC VR 300); type: cell-based

Structure (SMILES)	VIRUS YIELD (PFU/mL) [1]	VIRUS YIELD FOLD-REDUCTION [1]	MIC [2]	MIC [4]	TOXICITY [5]	toxicity (in words) [5]	broad spectrum antiviral activity [6]	other results
CCCCCCCCCCCCCCCCCCOCC(CO)n1ccnc1 (stereo not shown) [CPR 1005, 1-O-octadecyl-2-(1-imidazolyl)-2-deoxy-glycerol]	2.8 × 10^3 PFU/mL	1.03×10^4 fold	10 µg/mL (≈ 25.3 µM)	6.25 µg/mL (≈ 15.8 µM)	N	not toxic at the concentrations tested		TOXICITY ([3]; Table 4, HEP 2 cells, 24 hr, final concentration 100 (mM)): N; toxicity (in words) ([3]; at the dosages tested): not toxic at the dosages tested
Nc1ncnc2c1ncn2C[C@@H](CO)OCP(=O)(O)O [(S)-9-(3'-dihydroxy-2'-phosphonylmethoxypropyl)adenine]							broad spectrum antiviral activity	
Nc1ncnc2c1ncn2C[C@H](O)CO [(S)-9-(2',3'-dihydroxypropyl)adenine]							broad spectrum antiviral activity	
CCCCCCCCCCCCCCCCOCC(CO)n1ccnc1 (stereo not shown) [CPR 1104, 1-O-hexadecyl-2-(1-imidazolyl)-2-deoxy-glycerol]				1.6 µg/mL (≈ 4.36 µM)				
CCCCCCCCCCCCCCCCCCOCC(CO)n1cncn1 (stereo not shown) [CPR 1004, 1-O-octadecyl-2-(1-triazolyl)-2-deoxy-glycerol]	7.0 × 10^5 PFU/mL	41.7 fold	1 µg/mL (≈ 2.53 µM)	12.5 µg/mL (≈ 31.6 µM)	N	not toxic at the concentrations tested		VIRAL CPE [7]: ±; activity at 100000 µM ([1]; Enterovirus C, read-out: VIRUS YIELD (YIELD)): 2.4%
